Experimental data taken from ChEMBL document CHEMBL3991601, “The target landscape of clinical kinase drugs” (Science, 2017).
Calls of active or inactive are those of the source.

Key:
[1] = molecular target: Proto-oncogene tyrosine-protein kinase Src (Homo sapiens, UniProt P12931)
[2] = molecular target: T1, Acyl-CoA dehydrogenase family member 10 (Homo sapiens, UniProt Q6JQN1)
T1 sequence (Q6JQN1 whole entry): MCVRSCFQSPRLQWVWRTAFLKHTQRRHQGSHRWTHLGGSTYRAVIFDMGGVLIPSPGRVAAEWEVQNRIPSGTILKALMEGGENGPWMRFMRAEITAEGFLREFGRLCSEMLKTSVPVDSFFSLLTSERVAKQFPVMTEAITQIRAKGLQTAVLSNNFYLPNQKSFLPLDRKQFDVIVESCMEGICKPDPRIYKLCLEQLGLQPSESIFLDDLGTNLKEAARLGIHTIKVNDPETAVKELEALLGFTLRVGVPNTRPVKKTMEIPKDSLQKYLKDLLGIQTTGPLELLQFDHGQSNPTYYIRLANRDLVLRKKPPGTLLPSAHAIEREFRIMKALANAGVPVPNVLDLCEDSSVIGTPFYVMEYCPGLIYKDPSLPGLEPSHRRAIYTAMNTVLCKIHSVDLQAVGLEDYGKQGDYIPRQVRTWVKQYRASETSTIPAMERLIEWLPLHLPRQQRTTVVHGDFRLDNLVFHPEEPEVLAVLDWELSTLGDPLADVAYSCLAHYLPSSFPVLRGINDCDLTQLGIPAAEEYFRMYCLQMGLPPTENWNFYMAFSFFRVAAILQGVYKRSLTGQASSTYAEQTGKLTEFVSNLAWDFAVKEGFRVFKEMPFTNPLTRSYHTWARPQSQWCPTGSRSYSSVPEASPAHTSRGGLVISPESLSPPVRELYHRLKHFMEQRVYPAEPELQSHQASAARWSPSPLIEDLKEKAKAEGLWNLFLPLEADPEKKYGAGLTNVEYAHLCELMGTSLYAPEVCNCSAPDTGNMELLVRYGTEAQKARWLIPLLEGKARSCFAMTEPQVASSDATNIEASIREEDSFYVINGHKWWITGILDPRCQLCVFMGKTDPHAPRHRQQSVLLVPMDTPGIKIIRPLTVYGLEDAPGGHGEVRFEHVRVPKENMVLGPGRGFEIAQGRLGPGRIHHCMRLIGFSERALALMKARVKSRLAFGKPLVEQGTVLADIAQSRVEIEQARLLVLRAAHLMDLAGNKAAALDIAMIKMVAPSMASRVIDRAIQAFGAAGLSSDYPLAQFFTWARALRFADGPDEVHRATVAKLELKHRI

[3] = molecular target: T2, ATP-dependent RNA helicase DDX42 (Homo sapiens, UniProt Q86XP3)
T2 sequence (Q86XP3 whole entry): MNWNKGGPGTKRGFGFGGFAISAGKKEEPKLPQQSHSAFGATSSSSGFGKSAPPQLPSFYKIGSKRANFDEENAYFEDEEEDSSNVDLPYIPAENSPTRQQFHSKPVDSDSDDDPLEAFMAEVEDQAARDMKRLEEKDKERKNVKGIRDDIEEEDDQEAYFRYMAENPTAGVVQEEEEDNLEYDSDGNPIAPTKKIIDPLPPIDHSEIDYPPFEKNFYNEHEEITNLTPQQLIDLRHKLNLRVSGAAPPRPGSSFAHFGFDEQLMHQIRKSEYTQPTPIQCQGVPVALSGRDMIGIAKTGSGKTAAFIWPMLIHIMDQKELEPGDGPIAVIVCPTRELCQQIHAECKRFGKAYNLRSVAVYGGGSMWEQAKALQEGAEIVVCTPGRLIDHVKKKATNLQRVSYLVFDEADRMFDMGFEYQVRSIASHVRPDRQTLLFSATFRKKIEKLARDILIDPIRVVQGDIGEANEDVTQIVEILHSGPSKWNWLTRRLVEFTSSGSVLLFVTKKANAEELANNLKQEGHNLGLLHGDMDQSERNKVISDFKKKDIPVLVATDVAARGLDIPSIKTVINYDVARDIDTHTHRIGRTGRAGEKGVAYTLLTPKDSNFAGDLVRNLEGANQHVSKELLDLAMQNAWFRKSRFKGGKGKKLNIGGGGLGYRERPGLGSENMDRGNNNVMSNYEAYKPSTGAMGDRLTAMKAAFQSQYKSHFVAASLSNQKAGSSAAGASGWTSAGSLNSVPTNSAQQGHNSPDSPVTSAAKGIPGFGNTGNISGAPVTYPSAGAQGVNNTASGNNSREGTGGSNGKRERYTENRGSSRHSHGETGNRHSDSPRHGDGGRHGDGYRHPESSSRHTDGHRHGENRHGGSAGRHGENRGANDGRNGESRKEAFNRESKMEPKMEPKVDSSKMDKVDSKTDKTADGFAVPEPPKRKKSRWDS

[4] = molecular target: Tyrosine-protein kinase Yes (Homo sapiens, UniProt P07947)
Further: in the data inactive means no Kd found up to 30 µM.

Sequence of Proto-oncogene tyrosine-protein kinase Src (P12931 2-536 limits assumed): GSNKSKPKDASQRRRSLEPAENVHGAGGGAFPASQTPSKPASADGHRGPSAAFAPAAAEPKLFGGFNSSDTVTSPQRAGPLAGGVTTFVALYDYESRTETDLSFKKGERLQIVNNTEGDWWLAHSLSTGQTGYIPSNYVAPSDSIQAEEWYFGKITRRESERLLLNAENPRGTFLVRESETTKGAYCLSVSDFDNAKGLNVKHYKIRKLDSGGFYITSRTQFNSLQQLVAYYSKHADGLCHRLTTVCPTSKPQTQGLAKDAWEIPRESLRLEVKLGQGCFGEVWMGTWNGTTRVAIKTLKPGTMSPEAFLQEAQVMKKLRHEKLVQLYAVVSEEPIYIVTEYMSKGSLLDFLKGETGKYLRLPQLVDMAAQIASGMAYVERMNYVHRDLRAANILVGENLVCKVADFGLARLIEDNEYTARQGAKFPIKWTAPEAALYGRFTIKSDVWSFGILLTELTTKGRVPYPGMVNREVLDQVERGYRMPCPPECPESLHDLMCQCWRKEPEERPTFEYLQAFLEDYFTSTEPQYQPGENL
Sequence of Tyrosine-protein kinase Yes (P07947 whole entry): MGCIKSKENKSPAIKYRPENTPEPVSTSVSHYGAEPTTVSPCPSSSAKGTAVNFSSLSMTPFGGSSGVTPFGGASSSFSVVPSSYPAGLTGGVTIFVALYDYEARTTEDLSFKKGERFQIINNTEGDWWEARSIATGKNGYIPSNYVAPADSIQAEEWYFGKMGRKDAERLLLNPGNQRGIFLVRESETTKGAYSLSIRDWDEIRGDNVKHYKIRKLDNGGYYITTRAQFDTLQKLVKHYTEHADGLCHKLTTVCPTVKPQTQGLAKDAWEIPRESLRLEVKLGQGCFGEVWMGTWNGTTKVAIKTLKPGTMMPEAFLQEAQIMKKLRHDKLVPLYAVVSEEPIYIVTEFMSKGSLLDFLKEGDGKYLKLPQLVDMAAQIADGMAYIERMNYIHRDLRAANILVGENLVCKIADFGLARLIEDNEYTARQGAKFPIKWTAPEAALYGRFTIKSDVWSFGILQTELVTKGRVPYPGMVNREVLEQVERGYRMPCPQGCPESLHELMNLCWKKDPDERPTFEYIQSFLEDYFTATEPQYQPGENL

Row | SMILES | Kd [1] | Kd [2] | Kd [3] | Kd [4]
1 | C[C@@H](Oc1cc(C(=O)Nc2ccc(C(=O)N3CCN(C)CC3)cc2)nnc1N)c1c(Cl)ccc(F)c1Cl | > 30 µM (inactive) | > 30 µM (inactive) | > 30 µM (inactive) | > 30 µM (inactive)
2 | C[C@H]1CNCCCN1S(=O)(=O)c1cccc2cncc(F)c12 | > 30 µM (inactive) | > 30 µM (inactive) | > 30 µM (inactive) | > 30 µM (inactive)
3 | CC(=O)c1cnc2ccc(-c3cc(Cl)c(O)c(Cl)c3)nc2c1N[C@H]1CC[C@H](CN(C)C)CC1 | > 30 µM (inactive) | > 30 µM (inactive) | > 30 µM (inactive) | > 30 µM (inactive)
4 | CCNC(=O)C#Cc1ccc2c(c1)NC(=O)/C2=C(\Nc1ccc(CN(C)C)cc1)c1ccccc1 | 0.491 µM (active) | > 30 µM (inactive) | > 30 µM (inactive) | 0.094 µM (active)
5 | C=CC(=O)N1CCC[C@H](n2c(=O)n(-c3ccc(Oc4ccccc4)cc3)c3c(N)ncnc32)C1 | 0.004 µM | > 30 µM (inactive) | > 30 µM (inactive) | 0.005 µM
6 | Cc1nc2cc(-c3nn(C(C)C)c4ncnc(N)c34)ccc2o1 | > 30 µM (inactive) | > 30 µM (inactive) | > 30 µM (inactive) | > 30 µM (inactive)
7 | COCc1c(-c2ccc(NC(=O)Nc3cc(C(F)(F)F)ccc3F)c(F)c2)c2c(N)ncnn2c1CN1CCOCC1 | > 30 µM (inactive) | > 30 µM (inactive) | > 30 µM (inactive) | > 30 µM (inactive)
8 | Nc1ncnc2c1c(-c1cccc(OCc3ccccc3)c1)cn2[C@H]1C[C@@H](CN2CCC2)C1 [AEW-541] | 3.55 µM (active) | > 30 µM (inactive) | > 30 µM (inactive) | 0.337 µM (active)
9 | COc1cc(Nc2ncc3c(n2)-c2ccc(Cl)cc2C(c2c(F)cccc2OC)=NC3)ccc1C(=O)O [ALISERTIB] | > 30 µM (inactive) | – | > 30 µM (inactive) | > 30 µM (inactive)
10 | Cc1nc(NC(=O)N2CCC[C@H]2C(N)=O)sc1-c1ccnc(C(C)(C)C(F)(F)F)c1 [ALPELISIB] | > 30 µM (inactive) | > 30 µM (inactive) | – | > 30 µM (inactive)
11 | O=C(Nc1c[nH]nc1-c1nc2cc(CN3CCOCC3)ccc2[nH]1)NC1CC1 [AT-9283] | – | – | > 30 µM (inactive) | 0.574 µM (active)
12 | CNC(=O)c1ccccc1Sc1ccc2c(/C=C/c3ccccn3)n[nH]c2c1 [AXITINIB] | – | > 30 µM (inactive) | > 30 µM (inactive) | –
13 | COc1cc([C@@H]2c3cc4c(cc3[C@H](O)[C@H]3COC(=O)[C@@H]23)OCO4)cc(OC)c1OC [AXL-1717] | > 30 µM (inactive) | – | > 30 µM (inactive) | > 30 µM (inactive)
14 | NC(=O)Nc1cc(-c2cccc(F)c2)sc1C(=O)N[C@H]1CCCNC1 [AZD-7762] | 0.109 µM (active) | > 30 µM (inactive) | – | –
15 | Cn1cc(C2=C(c3cn(C4CCN(Cc5ccccn5)CC4)c4ccccc34)C(=O)NC2=O)c2ccccc21 [ENZASTAURIN] | – | > 30 µM (inactive) | – | –
16 | CN(C[C@@H]1COCCO1)S(=O)(=O)Nc1ccc2ccc3ncc(-c4cnn(C)c4)cc3c(=O)c2c1 [MK-2461] | > 30 µM (inactive) | – | > 30 µM (inactive) | > 30 µM (inactive)
17 | FC(F)(F)c1ccc(/C=C/c2nc(COc3ccc(CCCCn4ccnn4)cc3)co2)cc1 [MUBRITINIB] | > 30 µM (inactive) | > 30 µM (inactive) | – | > 30 µM (inactive)
18 | COc1ncc(-c2ccc3nccc(-c4ccnnc4)c3c2)cc1NS(=O)(=O)c1ccc(F)cc1F [OMIPALISIB] | > 30 µM (inactive) | – | – | > 30 µM (inactive)
19 | Cc1[nH]c(/C=C2\C(=O)Nc3ccccc32)c(C)c1CCC(=O)O [ORANTINIB] | – | > 30 µM (inactive) | > 30 µM (inactive) | > 30 µM (inactive)
20 | CC(=O)NCC(=O)N1[C@@H]2CC[C@H]1c1ccc(Nc3ncc(C(F)(F)F)c(NC4CCC4)n3)cc12 [PF-03814735] | – | > 30 µM (inactive) | > 30 µM (inactive) | > 30 µM (inactive)
21 | CNC(=O)c1cc(Oc2ccc(NC(=O)Nc3cc(C(C)(C)C)nn3-c3ccc4ncccc4c3)c(F)c2)ccn1 [REBASTINIB] | – | > 30 µM (inactive) | > 30 µM (inactive) | –
22 | O=C(NOCCO)c1cc(CN2OCCCC2=O)c(F)c(F)c1Nc1ccc(I)cc1F [RO-4987655] | – | > 30 µM (inactive) | > 30 µM (inactive) | –
23 | N#CC[C@H](C1CCCC1)n1cc(-c2ncnc3[nH]ccc23)cn1 [RUXOLITINIB] | – | > 30 µM (inactive) | – | –
24 | CN1CCN(CCOc2cc(OC3CCOCC3)c3c(Nc4c(Cl)ccc5c4OCO5)ncnc3c2)CC1 [SARACATINIB] | – | > 30 µM (inactive) | > 30 µM (inactive) | –
25 | CO[C@H]1C[C@@H]2CC[C@@H](C)[C@@](O)(O2)C(=O)C(=O)N2CCCC[C@H]2C(=O)O[C@H]([C@H](C)C[C@@H]2CC[C@@H](O)[C@H](OC)C2)CC(=O)[C@H](C)/C=C(\C)[C@@H](O)[C@@H](OC)C(=O)[C@H](C)C[C@H](C)/C=C/C=C/C=C/1C [SIROLIMUS] | > 30 µM (inactive) | > 30 µM (inactive) | – | > 30 µM (inactive)
26 | Cn1ncc(Cl)c1-c1cc(C(=O)N[C@H](CN)Cc2ccc(F)c(F)c2)oc1Cl [UPROSERTIB] | > 30 µM (inactive) | – | > 30 µM (inactive) | > 30 µM (inactive)
27 | CC(C)c1cc(CNc2nc(Nc3cc(C4CC4)[nH]n3)cc(N3CCN(C)CC3)n2)on1 [XL-228] | 0.459 µM (active) | – | – | 0.171 µM (active)
28 | C[C@@H](N)c1ccc(C(=O)Nc2ccnc3[nH]ccc23)cc1 [Y-39983] | > 30 µM (inactive) | – | > 30 µM (inactive) | > 30 µM (inactive)
29 | CN1C/C=C/CCOc2cccc(c2)-c2ccnc(n2)Nc2cccc(c2)C1 [ZOTIRACICLIB] | > 30 µM (inactive) | – | > 30 µM (inactive) | > 30 µM (inactive)

The remaining lines, values ahead:

Row | Kd [1] | Kd [2] | Kd [3] | Kd [4] | SMILES
30 | > 30 µM (inactive) | > 30 µM (inactive) | > 30 µM (inactive) | > 30 µM (inactive) | Cc1csc(-c2nnc(Nc3ccc(Oc4ncccc4-c4ccnc(N)n4)cc3)c3ccccc23)c1 [AMG-900]
31 | > 30 µM (inactive) | – | > 30 µM (inactive) | > 30 µM (inactive) | Cc1cc(C(=O)NOCCO)c(Nc2ccc(I)cc2F)n(C)c1=O [AZD-8330]
32 | – | > 30 µM (inactive) | > 30 µM (inactive) | – | C[C@@H](Oc1cc(-n2cnc3ccc(CN4CCN(C)CC4)cc32)sc1C(N)=O)c1ccccc1C(F)(F)F [GSK-461364]
33 | – | 1.11 µM (active) | > 30 µM (inactive) | > 30 µM (inactive) | CCn1cc(-c2ccnc3[nH]c(-c4cccc(CN(C)C)c4)cc23)c(-c2ccc(NC(=O)N(C)C)cc2)n1 [GSK-1070916]
34 | > 30 µM (inactive) | > 30 µM (inactive) | – | > 30 µM (inactive) | COc1ccc(S(=O)(=O)N(C(C)=O)c2ccccc2/C=C/c2cc[n+]([O-])cc2)cc1 [HMN-214]
35 | – | > 30 µM (inactive) | – | 0.881 µM (active) | NC(=O)c1c(OCc2c(F)cc(Br)cc2F)nsc1NC(=O)NCCCCN1CCCC1 [OSI-632]
36 | 0.092 µM (active) | – | > 30 µM (inactive) | 0.022 µM (active) | CCS(=O)(=O)c1cccc(-c2cc(C(=O)NC3CCN(C)CC3)c(C)c3[nH]c4ncc(C)cc4c23)c1 [TAK-901]
